Test results from patent US20080021026A1, “BENZOTHIOPHENE INHIBITORS OF RHO KINASE” (priority 2006, published 2008).
Read-outs that look alike come from different tables or passages of the source.

Experiments:
[1] = target: T1, recombinant N-terminal GST-tagged human Rho kinase 1 (ROCK1, amino acids 1-535) (Homo sapiens, UniProt Q13464); experiment: In vitro Rho kinase assay (luciferase-based ATP consumption), ROCK1; format: biochemical
T1 construct: ROCK1, amino acids 1-535; purchased Invitrogen Inc. PV-3691
T1 sequence (Q13464 1-535): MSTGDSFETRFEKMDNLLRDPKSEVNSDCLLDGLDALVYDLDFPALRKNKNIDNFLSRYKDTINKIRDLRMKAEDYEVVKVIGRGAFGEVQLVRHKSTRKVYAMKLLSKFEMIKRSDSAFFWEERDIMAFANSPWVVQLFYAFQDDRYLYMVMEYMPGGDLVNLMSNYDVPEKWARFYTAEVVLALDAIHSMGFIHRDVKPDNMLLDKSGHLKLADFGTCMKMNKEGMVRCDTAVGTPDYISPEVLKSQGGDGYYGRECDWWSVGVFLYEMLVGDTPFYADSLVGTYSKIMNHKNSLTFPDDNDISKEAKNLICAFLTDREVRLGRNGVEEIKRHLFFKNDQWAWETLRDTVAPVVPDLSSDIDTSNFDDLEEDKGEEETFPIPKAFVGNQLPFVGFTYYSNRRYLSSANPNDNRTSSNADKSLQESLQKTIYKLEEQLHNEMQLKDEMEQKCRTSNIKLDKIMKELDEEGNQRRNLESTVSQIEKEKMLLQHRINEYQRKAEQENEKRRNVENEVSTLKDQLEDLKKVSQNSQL
Method: In Vitro Rho Kinase Assay
Rho kinase biochemical assays described below depend on firefly luciferase-based, indirect measurement of total ATP consumption by the kinase following incubation with substrate and ATP. 25 μl of Rho kinase assay buffer (20 mM Tris-HCL [pH 7.5], 1 mM MgCl2, 0.4 mM CaCl2, 0.15 mM EGTA, 0.1 mg/ml bovine serum albumin) containing 0.82 μg/ml of recombinant N-terminal GST-tagged human Rho kinase 1 (ROCK1, amino acids 1-535, Invitrogen Inc., cat. #PV-3691) or recombinant N-terminal GST-tagged human Rho kinase 2 (ROCK2, amino acids 1-552, Invitrogen Inc., cat #PV3759), 100 μg/ml S6 peptide substrate (related to amino acids 218-249 of the human 40S ribosomal protein S6, and suitable for ROCK1 or ROCK2, e.g. Upstate/Millipore Inc., cat #12-420), and 3 µM ATP are dispensed to wells of a 384 multi-well opaque plate. The plate is centrifuged for 30 seconds at approximately 200×g. 240 nl of test compound in DMSO is dispensed to each well by passive pin transfer. The lag phase of this in vitro kinase reaction permits addition of compounds soon after the reaction initiates. The reaction is allowed to incubate at 30° C. for 2 hours. The assay plates are sealed and maintained in a humidified environment. After 2 hours, 25 μl of easylite protein kinase assay reagent (Perkin-Elmer, Inc.) is dispensed. After an additional 10 minute incubation at room temperature (about 22° C.), luminescence activity is measured on a Molecular Devices Analyst multi-mode plate reader or other suitable plate reader. Kinase inhibition results in less ATP consumption, and therefore increased luminescence signal. Negative control activity is measured with DMSO lacking any test compound. The positive control is 2-methyl-1-(4-methylisoquinolin-5-ylsulfonyl)perhydro-1,4-diazepine hydrochloride (aka H-1152P, HCl salt). Efficacy is measured as a percentage of positive control activity. […] The designation NT means the cited example was not tested.

[2] = target: T2, recombinant N-terminal GST-tagged human Rho kinase 2 (ROCK2, amino acids 1-552) (Homo sapiens, UniProt O75116); experiment: In vitro Rho kinase assay (luciferase-based ATP consumption), ROCK2; format: biochemical
T2 construct: ROCK2, amino acids 1-552; purchased Invitrogen Inc. PV3759
T2 sequence (O75116 1-552): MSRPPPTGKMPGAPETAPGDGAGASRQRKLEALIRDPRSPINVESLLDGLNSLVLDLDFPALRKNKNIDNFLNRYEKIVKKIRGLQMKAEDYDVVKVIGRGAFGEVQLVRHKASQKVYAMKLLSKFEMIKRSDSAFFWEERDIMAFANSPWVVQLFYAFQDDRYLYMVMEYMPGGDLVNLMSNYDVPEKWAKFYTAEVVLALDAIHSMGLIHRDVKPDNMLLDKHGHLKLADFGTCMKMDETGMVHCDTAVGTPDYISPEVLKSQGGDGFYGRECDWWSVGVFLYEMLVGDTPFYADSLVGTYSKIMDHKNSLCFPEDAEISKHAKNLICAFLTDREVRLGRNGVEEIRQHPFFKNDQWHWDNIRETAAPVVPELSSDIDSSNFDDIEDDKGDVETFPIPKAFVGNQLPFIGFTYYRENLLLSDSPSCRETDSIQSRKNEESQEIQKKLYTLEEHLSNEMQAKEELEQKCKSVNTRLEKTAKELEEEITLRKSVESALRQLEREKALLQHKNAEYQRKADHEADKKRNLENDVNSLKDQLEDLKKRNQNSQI
Method in brief: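 GST-ROCK2 (aa 1-552, 0.82 μg/ml) with 100 μg/ml S6 peptide and 3 µM ATP in Tris pH 7.5 buffer with MgCl2/CaCl2/EGTA/BSA, compound added just after reaction start, 2 h at 30 °C. Remaining ATP read by luciferase luminescence. Efficacy expressed as percentage of H-1152P positive control.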

[3] = recombinant GST-tagged human ROCK1, luciferase-based ATP consumption, read-out: ROCK1 IC50
[4] = recombinant GST-tagged human ROCK2, luciferase-based ATP consumption, read-out: ROCK2 IC50

Compound: Cc1cc(C)c(C(=O)NCc2ccc3sc(-c4ccnc(N)n4)c(C)c3c2)c(C)c1 [Example 170, Cc1cc(C)c(c(C)c1)C(═O)NCc2ccc3sc(c(C)c3c2)-c4ccnc(N)n4]
- IC50 [1, 3]: > 5 µM
- IC50 [2, 4]: < 5 µM

Compound: Cc1c(-c2ccnc(N)n2)sc2ccc(CNC(=O)c3ccc4ncccc4c3)cc12 [Example 192, Cc1c(sc2ccc(CNC(═O)c3ccc4ncccc4c3)cc12)-c5ccnc(N)n5]
- IC50 [1, 3]: > 5 µM
- IC50 [2, 4]: < 5 µM

Compound: COc1cccc(N(C)c2ccc3sc(-c4ccnc(N)n4)c(C)c3c2)c1 [Example 78, 4-(5-((3-Methoxyphenyl)(methyl)amino)-3-methylbenzo[b]thiophen-2-yl)pyrimidin-2-amine]
- IC50 [1, 3]: < 5 µM
- IC50 [2, 4]: < 5 µM

Compound: COC(=O)c1cccc(Cc2ccc3sc(-c4ccnc(N)n4)c(C)c3c2)c1 [Example 42, Methyl 3-((2-(2-aminopyrimidin-4-yl)-3-methylbenzo[b]thiophen-5-yl)methyl)benzoate]
- IC50 [1, 3]: > 5 µM
- IC50 [2, 4]: < 5 µM

Compound: Cc1c(-c2ccnc(N)n2)sc2ccc(CNC(=O)CCc3cccc(C(F)(F)F)c3)cc12 [Example 294, Cc1c(sc2ccc(CNC(═O)CCc3cccc(c3)C(F)(F)F)cc12)-c4ccnc(N)n4]
- IC50 [1, 3]: < 5 µM
- IC50 [2, 4]: < 5 µM

Compound: COc1ccccc1CC(=O)NCc1ccc2sc(-c3ccnc(N)n3)c(C)c2c1 [Example 177, COc1ccccc1CC(═O)NCc2ccc3sc(c(C)c3c2)-c4ccnc(N)n4]
- IC50 [1, 3]: > 5 µM
- IC50 [2, 4]: < 5 µM

Compound: Cc1c(-c2ccnc(N)n2)sc2ccc(CNC(=O)C(C(C)C)N(C)C(=O)OC(C)(C)C)cc12 (stereo not shown) [Example 312, CC(C)C(N(C)C(═O)OC(C)(C)C)C(═O)NCc1ccc2sc(c(C)c2c1)-c3ccnc(N)n3]
- IC50 [1, 3]: > 5 µM
- IC50 [2, 4]: > 5 µM

Compound: Cc1c(-c2ccnc(N)n2)sc2ccc(Nc3cccc(OCc4ccccc4)c3)cc12 [Example 55, 4-(5-(3-(Benzyloxy)phenylamino)-3-methylbenzo[b]thiophen-2-yl)pyrimidin-2-amine]
- IC50 [1, 3]: < 5 µM
- IC50 [2, 4]: < 5 µM

Compound: Cc1c(-c2ccnc(N)n2)sc2ccc(CNC(=O)c3cc(Cl)ccc3Cl)cc12 [Example 247, Cc1c(sc2ccc(CNC(═O)c3cc(Cl)ccc3Cl)cc12)-c4ccnc(N)n4]
- IC50 ([1]; ROCK1 IC50, recombinant GST-tagged human ROCK1, luciferase-based ATP consumption): < 5 µM
- IC50 ([2]; ROCK2 IC50, recombinant GST-tagged human ROCK2, luciferase-based ATP consumption): < 5 µM

Compound: Cc1c(-c2ccnc(N)n2)sc2ccc(CNC(=O)c3c(F)cccc3F)cc12 [Example 153, Cc1c(sc2ccc(CNC(═O)c3c(F)cccc3F)cc12)-c4ccnc(N)n4]
- IC50 [1, 3]: < 5 µM
- IC50 [2, 4]: < 5 µM

Compound: COc1cc(C(=O)NCc2ccc3sc(-c4ccnc(N)n4)c(C)c3c2)cc(OC)c1O [Example 260, COc1cc(cc(OC)c1O)C(═O)NCc2ccc3sc(c(C)c3c2)-c4ccnc(N)n4]
- IC50 [1, 3]: > 5 µM
- IC50 [2, 4]: < 5 µM

Compound: Cc1c(-c2ccnc(N)n2)sc2ccc(CNC(=O)c3cc(F)cc(F)c3)cc12 [Example 156, Cc1c(sc2ccc(CNC(═O)c3cc(F)cc(F)c3)cc12)-c4ccnc(N)n4]
- IC50 [1, 3]: < 5 µM
- IC50 [2, 4]: < 5 µM

Compound: Cc1c(-c2ccnc(N)n2)sc2ccc(CNC(=O)c3ccccc3O)cc12 [Example 122, Cc1c(sc2ccc(CNC(═O)c3ccccc3O)cc12)-c4ccnc(N)n4]
- IC50 [1, 3]: > 5 µM
- IC50 [2, 4]: < 5 µM

Compound: Cc1c(-c2ccnc(N)n2)sc2ccc(CNC(=O)c3ccc(F)c(F)c3)cc12 [Example 157, Cc1c(sc2ccc(CNC(═O)c3ccc(F)c(F)c3)cc12)-c4ccnc(N)n4]
- IC50 [1, 3]: > 5 µM
- IC50 [2, 4]: < 5 µM

Compound: COc1ccc2cc(C(C)C(=O)NCc3ccc4sc(-c5ccnc(N)n5)c(C)c4c3)ccc2c1 (stereo not shown) [Example 307, COc1ccc2cc(ccc2c1)[C](C)C(═O)NCc3ccc4sc(c(C)c4c3)-c5ccnc(N)n5]
- IC50 [1, 3]: < 5 µM
- IC50 [2, 4]: > 5 µM

Compound: CC(=O)Oc1cccc(C(=O)NCc2ccc3sc(-c4ccnc(N)n4)c(C)c3c2)c1 [Example 210, CC(═O)Oc1cccc(c1)C(═O)NCc2ccc3sc(c(C)c3c2)-c4ccnc(N)n4]
- IC50 [1, 3]: < 5 µM
- IC50 [2, 4]: < 5 µM

Compound: Cc1c(-c2ccnc(N)n2)sc2ccc(CNC(=O)c3cc4ccccc4s3)cc12 [Example 202, Cc1c(sc2ccc(CNC(═O)c3cc4ccccc4s3)cc12)-c5ccnc(N)n5]
- IC50 [1, 3]: < 5 µM
- IC50 [2, 4]: < 5 µM
